Laboratory results taken from patent US20240400560A1, “BICYCLIC HETEROCYCLIC DERIVATIVE HAVING VIRAL GROWTH INHIBITORY ACTIVITY AND PHARMACEUTICAL COMPOSITION CONTAINING SAME” (Shionogi & Co., Ltd., priority 2021, published 2024).
Like-named read-outs stand apart in the source and are kept apart here.

Target: SARS-CoV-2 3CL protease (Severe acute respiratory syndrome coronavirus 2, UniProt P0DTD1)
Experiment: Inhibitory activity test against SARS-CoV-2 3CL proteases
Type: biochemical
[1] = read-out: IC50 (50% SARS-CoV-2 3CL protease inhibitory concentration)
[2] = IC50 (50% SARS-CoV-2 3CL protease inhibitory concentration)

SMILES | IC50 [1] [nM] | IC50 [2] [nM]
COc1cc(-c2cc(CC(=O)NCCN(C)C)ccc2Cl)cc2c1c(=O)n(-c1cncc(Cl)c1)c(=O)n2Cc1ccc(F)c(C#N)c1 [Compound I-0203] | < 100 | 
NC(=O)c1ccc(Cl)c(-c2ccc3c(=O)n(Cc4ccc[nH]c4=O)c(=O)n(Cc4cc(F)c(F)c(F)c4)c3c2)c1 [Compound I-0296] | < 100 | 
COc1nc(N2CCC(C#N)C2)cc2c1c(=O)n(Cc1ncn(C)n1)c(=O)n2Cc1cc(F)c(F)c(F)c1 (stereo not shown) [Compound I-0451] | < 100 | 
O=c1[nH]cccc1Cn1c(=O)c2ccc(N3C[C@@H]4CC[C@H]3CN4)cc2n(Cc2cc(F)c(F)c(F)c2)c1=O [Compound I-0380] | 14 | 
CN=S(C)(=O)c1ccc(Cl)c(-c2cc(OC)c3c(=O)n(-c4cncc(Cl)c4)c(=O)n(Cc4cc(F)c(F)c(F)c4)c3c2)c1 (stereo not shown) [Compound I-0199] | 16 | 
COc1cc(-c2cc(CC(=O)NCCN(C)C)ccc2Cl)cc2c1c(=O)n(-c1cncc(Cl)c1)c(=O)n2Cc1cc(F)c(F)c(F)c1 [Compound I-0204] | < 100 | 
N#Cc1ccc(Cl)c(-c2cc3c(c4c2CCO4)c(=O)n(Cc2cc(F)c[nH]c2=O)c(=O)n3Cc2cc(F)c(F)c(F)c2)c1 [Compound I-0504] | < 100 | 
Cn1cnc(Cn2c(=O)c3c4c(c(-c5cc(C#N)ccc5Cl)cc3n(Cc3cc(F)c(F)c(F)c3)c2=O)CCCO4)n1 [Compound I-0460] | 9.2 | 
COc1cc(-c2cc(C(=O)NCCOCCO)ccc2Cl)cc2c1c(=O)n(-c1cncc(C)c1)c(=O)n2Cc1ccc(F)c(C#N)c1 [Compound I-0196] | 11 | 
O=c1[nH]cccc1Cn1c(=O)c2ccc(N3C[C@@H]4CN[C@@H](C4)C3)cc2n(Cc2cc(F)c(F)c(F)c2)c1=O [Compound I-0378] | < 100 | 
COc1cc(-c2c(Cl)ccc3c2CN(C)C3=O)cc2c1c(=O)n(Cc1ncn(C)n1)c(=O)n2Cc1cc(F)c(F)c(F)c1 [Compound I-0278] | 26 | 
COc1cc(N2C[C@H]3C[C@@H]2CN3)cc2c1c(=O)n(-c1cncc(Cl)c1)c(=O)n2Cc1cc(F)c(F)c(F)c1 [Compound I-0396] | 1.3 | 
Cn1cnc(Cn2c(=O)c3c(F)cc(-c4cc5c(cc4Cl)NC(=O)C54CC4)cc3n(Cc3cc(F)c(F)c(F)c3)c2=O)n1 [Compound I-0119] | 23 | 
Cn1cnc(Cn2c(=O)c3c(Cl)cc(-c4cc(C#N)ccc4Cl)cc3n(Cc3cc(F)c(F)c(Cl)c3)c2=O)n1 [Compound I-0175] | < 100 | 
Cn1cnc(Cn2c(=O)c3c4c(c(N5CC[C@@H](O)C5)cc3n(Cc3cc(F)c(F)c(F)c3)c2=O)CCO4)n1 [Compound I-0415] | < 100 | 
Cc1cncc(-n2c(=O)c3c(Cl)cc(-c4cc(C#N)ccc4Cl)cc3n(Cc3cc(F)c(F)c(F)c3)c2=O)c1 [Compound I-0012] | < 100 | 
COc1cc(-c2cc(CC(=O)N(C)C)ccc2Cl)cc2c1c(=O)n(-c1cncc(Cl)c1)c(=O)n2Cc1cc(Cl)ccc1C [Compound I-0205] | < 100 | 
COc1cc(-c2c(Cl)ccc3c2CNC3=O)cc2c1c(=O)n(Cc1ncn(C)n1)c(=O)n2Cc1cc(F)c(F)c(F)c1 [Compound I-0277] | 24 | 
COc1cc(-c2cc(C(C)=O)ccc2Cl)cc2c1c(=O)n(Cc1ncn(C)n1)c(=O)n2Cc1cc(F)c(F)cc1F [Compound I-0282] | < 100 | 
Cn1cnc(Cn2c(=O)c3c(cc(-c4cc(C#N)ccc4Cl)n4cnnc34)n(Cc3cc(F)c(F)c(F)c3)c2=O)n1 [Compound I-0644] | < 100 | 
COc1cc(-c2cc(CC(=O)NC3CCN(C)CC3)ccc2Cl)cc2c1c(=O)n(-c1cncc(Cl)c1)c(=O)n2Cc1cc(Cl)ccc1C [Compound I-0187] | 5 | 
Cn1cnc(Cn2c(=O)c3c(Cl)cc(-c4cc5cn[nH]c5cc4Cl)cc3n(Cc3cc(F)c(F)c(Cl)c3)c2=O)n1 [Compound I-0173] | < 100 | 

SMILES | IC50 [1] [nM] | IC50 [2] [nM]
COc1cc(-c2cc(CC(=O)NC3CCN(C)CC3)ccc2Cl)cc2c1c(=O)n(-c1cncc(Cl)c1)c(=O)n2Cc1cc(F)c(F)c(F)c1 [Compound I-0197] | < 100 | 
N#Cc1ccc(Cl)c(-c2cc3c(c(=O)[nH]2)c(=O)n(-c2cncc(Cl)c2)c(=O)n3Cc2cc(F)c(F)c(F)c2)c1 [Compound I-0431] | 11 | 
COc1cc(-c2cc(C#N)ccc2Cl)cc2c1c(=O)n(-c1cncc(C)c1)c(=O)n2Cc1cc(F)c(F)c(F)c1 [Compound I-0026] | 6.5 | 
Cn1cnc(Cn2c(=O)c3c4c(c(-c5cc6c(cc5Cl)NC(=O)C6)cc3n(Cc3cc(F)c(F)c(F)c3)c2=O)CCO4)n1 [Compound I-0353] | 0.45 | 
COc1cc(-c2nc(NS(C)(=O)=O)ccc2Cl)cc2c1c(=O)n(-c1cncc(C)c1)c(=O)n2Cc1cc(F)c(F)c(F)c1 [Compound I-0078] | < 100 | 
COc1nc(N2CC[C@H](F)C2)cc2c1c(=O)n(Cc1ncn(C)n1)c(=O)n2Cc1cc(F)c(F)c(F)c1 [Compound I-0446] |  | < 100
COc1nc(N2C[C@H]3C[C@@H]2CN3)cc2c1c(=O)n(-c1cncc(Cl)c1)c(=O)n2Cc1cc(F)c(F)c(F)c1 [Compound I-0459] | < 100 | 
COc1nc(-c2cc(C#N)ccc2Cl)cc2c1c(=O)n(-c1cncc(Cl)c1)c(=O)n2Cc1cc(F)c(F)c(F)c1 [Compound I-0178] | < 100 | 
CC1COc2c1c(-c1cc(C#N)ccc1Cl)cc1c2c(=O)n(Cc2ncn(C)n2)c(=O)n1Cc1cc(F)c(F)c(F)c1 (stereo not shown) [Compound I-0438] | 3.5 | 
COc1cc(-c2cc(C(=O)NCCNCCO)ccc2Cl)cc2c1c(=O)n(Cc1ncn(C)n1)c(=O)n2Cc1cc(F)c(F)c(F)c1 [Compound I-0216] | < 100 | 
COc1cc(-c2c(Cl)ccc3c(=O)[nH]ccc23)cc2c1c(=O)n(Cc1ncn(C)n1)c(=O)n2Cc1cc(F)c(F)c(F)c1 [Compound I-0274] | 15 | 
Cn1cnc(Cn2c(=O)c3c4c(c(-c5cc(N=S(C)(C)=O)ccc5Cl)cc3n(Cc3cc(F)c(F)c(F)c3)c2=O)CCO4)n1 [Compound I-0472] | < 100 | 
Cn1cnc(Cn2c(=O)c3ncc(-c4cc5c(cc4Cl)NC(=O)C5)cc3n(Cc3cc(F)c(F)c(Cl)c3)c2=O)n1 [Compound I-0121] | < 100 | 
CNC(=O)c1ccc(Cl)c(-c2cc(OC)c3c(=O)n(-c4cncc(C)c4)c(=O)n(Cc4ccc(F)c(C#N)c4)c3c2)c1 [Compound I-0192] | < 100 | 
COc1cc(-c2cc(C(=O)NCCO)ccc2Cl)cc2c1c(=O)n(Cc1ncn(C)n1)c(=O)n2Cc1cc(F)c(F)c(F)c1 [Compound I-0214] | < 100 | 
O=c1[nH]cccc1Cn1c(=O)c2ccc(N3[C@@H]4CC[C@H]3CNC4)cc2n(Cc2cc(F)c(F)c(F)c2)c1=O [Compound I-0379] |  | < 100
COc1cc(-c2cc(C#N)ccc2Cl)cc2c1c(=O)n(Cc1ncn(C)n1)c(=O)n2Cc1cc(F)c(F)c(Cl)c1 [Compound I-0271] | < 100 | 
COc1cc(-c2cc(CC(=O)NCCS(C)(=O)=O)ccc2Cl)cc2c1c(=O)n(-c1cncc(Cl)c1)c(=O)n2Cc1cc(F)c(F)c(F)c1 [Compound I-0202] | 20 | 
Cn1cnc(Cn2c(=O)c3c(F)cc(-c4cc(C#N)ccc4Cl)cc3n(Cc3cc(F)c(F)c(Cl)c3)c2=O)n1 [Compound I-0281] | < 100 | 
COc1cc(-c2cc(C(=O)N3CCOCC3)ccc2Cl)cc2c1c(=O)n(-c1cncc(C)c1)c(=O)n2Cc1ccc(F)c(C#N)c1 [Compound I-0209] | < 100 | 
COc1cc(-c2cnc(N)cc2Cl)cc2c1c(=O)n(Cc1ncn(C)n1)c(=O)n2Cc1cc(F)c(F)c(F)c1 [Compound I-0514] | < 100 | 
